Experiments:
B. subtilis 168 [1] = assay: fitness (endpoint OD595 vs no drug) (fraction); higher = more growth
Method in brief: (§1)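 Each well of a 384-well plate received 30 µl of culture at OD595 0.01, or 55 µl for S. pneumoniae. TSB, LB Lennox or CY served as media at 37 °C. OD595 was taken every 30 min for 14 h and corrected by subtracting the first reading. Fitness is the optical density at stationary-phase entry divided by the robust mean of no-drug controls, capped at 1.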

S. pneumoniae D39V [2] = assay: as above
Method in brief: as §1

B. subtilis 168 [3] = assay: Bliss interaction score (quartile over a dose matrix) (fitness difference); higher = more antagonism (negative = synergy)
Method in brief: (§2)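 Fitness was derived from optical density at entry into stationary phase, divided by the robust mean of the no-drug wells on the same plate. That reading was taken as OD595, and the ratio was capped at 1. Single-drug fitness was inferred from the combination data. The Bliss score, observed fitness minus the expected product of single-drug fitness, was summarised as quartiles over technical, biological and donor/recipient replicates.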

S. aureus Newman = assay: as above
Method in brief: as §2

S. aureus DSM 20231 = assay: as above
Method in brief: as §2

S. pneumoniae D39V [4] = assay: as above
Method in brief: as §2
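For Bliss interaction score (quartile over a dose matrix) in this document: first quartile when negative (synergy) and third quartile when positive (antagonism).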

C[C@@H]1O[C@@H]1P(=O)(O)O [Fosfomycin] + C[C@H]1COc2c(N3CCN(C)CC3)c(F)cc3c(=O)c(C(=O)O)cn1c23 [Levofloxacin]
fitness, B. subtilis 168 [1], one replicate
Details | first compound 1.562 µg/mL | first compound 3.124 µg/mL | first compound 6.248 µg/mL
partner 0.001 µg/mL | 0.864 | 0.738 | 0.599
partner 0.0078 µg/mL | 0.75 | 0.643 | 0.492

Details | fitness
B. subtilis 168 [1], first compound 1.562 µg/mL, partner 0.002 µg/mL | 0.717
B. subtilis 168 [1], first compound 1.562 µg/mL, partner 0.0039 µg/mL | 0.724
B. subtilis 168 [1], first compound 1.562 µg/mL, partner 0.0312 µg/mL | 0.0432
B. subtilis 168 [1], first compound 1.562 µg/mL, partner 0.0625 µg/mL | 0.0523
B. subtilis 168 [1], first compound 1.562 µg/mL, partner 0.125 µg/mL | 0.0479
B. subtilis 168 [1], first compound 3.124 µg/mL, partner 0.002 µg/mL | 0.629
B. subtilis 168 [1], first compound 3.124 µg/mL, partner 0.0039 µg/mL | 0.617
B. subtilis 168 [1], first compound 3.124 µg/mL, partner 0.0312 µg/mL | 0.0352
B. subtilis 168 [1], first compound 3.124 µg/mL, partner 0.0625 µg/mL | 0.0394
B. subtilis 168 [1], first compound 3.124 µg/mL, partner 0.125 µg/mL | 0.0439
B. subtilis 168 [1], first compound 6.248 µg/mL, partner 0.002 µg/mL | 0.525
B. subtilis 168 [1], first compound 6.248 µg/mL, partner 0.0039 µg/mL | 0.516
B. subtilis 168 [1], first compound 6.248 µg/mL, partner 0.0312 µg/mL | 0.0328
B. subtilis 168 [1], first compound 6.248 µg/mL, partner 0.0625 µg/mL | 0.0306
B. subtilis 168 [1], first compound 6.248 µg/mL, partner 0.125 µg/mL | 0.023
S. pneumoniae D39V [2], first compound 1.25 µg/mL, partner 0.1725 µg/mL | 0.953
S. pneumoniae D39V [2], first compound 1.25 µg/mL, partner 0.2 µg/mL | 0.936
S. pneumoniae D39V [2], first compound 1.25 µg/mL, partner 0.345 µg/mL | 0.86
S. pneumoniae D39V [2], first compound 1.25 µg/mL, partner 0.4 µg/mL | 0.857
S. pneumoniae D39V [2], first compound 1.25 µg/mL, partner 0.69 µg/mL | 0.633
S. pneumoniae D39V [2], first compound 2.5 µg/mL, partner 0.1725 µg/mL | 0.88
S. pneumoniae D39V [2], first compound 2.5 µg/mL, partner 0.2 µg/mL | 0.892
S. pneumoniae D39V [2], first compound 2.5 µg/mL, partner 0.345 µg/mL | 0.735
S. pneumoniae D39V [2], first compound 2.5 µg/mL, partner 0.4 µg/mL | 0.823
S. pneumoniae D39V [2], first compound 2.5 µg/mL, partner 0.69 µg/mL | 0.574
S. pneumoniae D39V [2], first compound 5 µg/mL, partner 0.1725 µg/mL | 0.821
S. pneumoniae D39V [2], first compound 5 µg/mL, partner 0.2 µg/mL | 0.794
S. pneumoniae D39V [2], first compound 5 µg/mL, partner 0.345 µg/mL | 0.728
S. pneumoniae D39V [2], first compound 5 µg/mL, partner 0.4 µg/mL | 0.697
S. pneumoniae D39V [2], first compound 5 µg/mL, partner 0.69 µg/mL | 0.536
S. pneumoniae D39V [2], first compound 5 µg/mL, partner 0.8 µg/mL | 0.341

Details | Bliss interaction score
B. subtilis 168 [3] | -0.0453
S. aureus DSM 20231 | 0.0688
S. aureus Newman | 0.0484
S. pneumoniae D39V [4] | 0.0613

C[C@H]1c2cccc(O)c2C(=O)C2=C(O)[C@]3(O)C(=O)C(C(N)=O)=C(O)[C@@H](N(C)C)[C@@H]3[C@@H](O)[C@@H]21 [Doxycycline] + Cc1onc(-c2ccccc2)c1C(=O)N[C@@H]1C(=O)N2[C@@H]1SC(C)(C)[C@@H]2C(=O)O [Oxacillin]
Details | fitness
B. subtilis 168 [1], first compound 0.02 µg/mL, partner 0.002 µg/mL | 0.885
B. subtilis 168 [1], first compound 0.02 µg/mL, partner 0.004 µg/mL | 0.933
B. subtilis 168 [1], first compound 0.02 µg/mL, partner 0.008 µg/mL | 0.882
B. subtilis 168 [1], first compound 0.04 µg/mL, partner 0.002 µg/mL | 0.762
B. subtilis 168 [1], first compound 0.04 µg/mL, partner 0.004 µg/mL | 0.771
B. subtilis 168 [1], first compound 0.04 µg/mL, partner 0.008 µg/mL | 0.716
B. subtilis 168 [1], first compound 0.08 µg/mL, partner 0.002 µg/mL | 0.419
B. subtilis 168 [1], first compound 0.08 µg/mL, partner 0.004 µg/mL | 0.422
B. subtilis 168 [1], first compound 0.08 µg/mL, partner 0.008 µg/mL | 0.372
S. pneumoniae D39V [2], first compound 0.0155 µg/mL, partner 0.01 µg/mL | 0.957
S. pneumoniae D39V [2], first compound 0.0155 µg/mL, partner 0.02 µg/mL | 0.921
S. pneumoniae D39V [2], first compound 0.031 µg/mL, partner 0.01 µg/mL | 0.917
S. pneumoniae D39V [2], first compound 0.031 µg/mL, partner 0.02 µg/mL | 0.885
S. pneumoniae D39V [2], first compound 0.062 µg/mL, partner 0.01 µg/mL | 0.859
S. pneumoniae D39V [2], first compound 0.062 µg/mL, partner 0.02 µg/mL | 0.801
S. pneumoniae D39V [2], first compound 0.062 µg/mL, partner 0.04 µg/mL | 0.71

fitness, one replicate
Details | partner 0.0078 µg/mL | partner 0.01 µg/mL | partner 0.0155 µg/mL | partner 0.02 µg/mL | partner 0.031 µg/mL | partner 0.04 µg/mL | partner 0.075 µg/mL | partner 0.15 µg/mL | partner 0.3 µg/mL
B. subtilis 168 [1], first compound 0.02 µg/mL | ≥ 1 | – | ≥ 1 | – | ≥ 1 | – | 0.661 | 0.0438 | 0.0604
B. subtilis 168 [1], first compound 0.04 µg/mL | 0.858 | – | 0.843 | – | 0.843 | – | 0.576 | 0.025 | 0.0223
B. subtilis 168 [1], first compound 0.08 µg/mL | 0.721 | – | 0.742 | – | 0.716 | – | 0.102 | 0.0327 | 0.0213
S. pneumoniae D39V [2], first compound 0.003875 µg/mL | – | ≥ 1 | – | 0.978 | – | 0.357 | – | – | –
S. pneumoniae D39V [2], first compound 0.00775 µg/mL | – | ≥ 1 | – | 0.959 | – | 0.571 | – | – | –

Details | Bliss interaction score
B. subtilis 168 [3] | 0.0493
S. aureus DSM 20231 | 0.0402
S. aureus Newman | -0.0136
S. pneumoniae D39V [4] | 0.159

O=C(O)c1cn(C2CC2)c2cc(N3CCNCC3)c(F)cc2c1=O [Ciprofloxacin] + CC(=O)NC[C@H]1CN(c2ccc(N3CCOCC3)c(F)c2)C(=O)O1 [Linezolid]
one replicate
Details | fitness
B. subtilis 168 [1], first compound 0.0098 µg/mL, partner 0.0625 µg/mL | 0.889
B. subtilis 168 [1], first compound 0.0195 µg/mL, partner 0.0625 µg/mL | 0.856
B. subtilis 168 [1], first compound 0.039 µg/mL, partner 0.0625 µg/mL | 0.417
S. pneumoniae D39V [2], first compound 0.25 µg/mL, partner 0.2 µg/mL | 0.442
S. pneumoniae D39V [2], first compound 0.25 µg/mL, partner 0.4 µg/mL | 0.28
S. pneumoniae D39V [2], first compound 0.25 µg/mL, partner 0.8 µg/mL | 0.154

Details | fitness
B. subtilis 168 [1], first compound 0.0195 µg/mL, partner 0.125 µg/mL | 0.609
B. subtilis 168 [1], first compound 0.0195 µg/mL, partner 0.5 µg/mL | 0.334
B. subtilis 168 [1], first compound 0.039 µg/mL, partner 0.125 µg/mL | 0.394
B. subtilis 168 [1], first compound 0.039 µg/mL, partner 0.5 µg/mL | 0.263
S. pneumoniae D39V [2], first compound 0.125 µg/mL, partner 0.105 µg/mL | 0.788
S. pneumoniae D39V [2], first compound 0.125 µg/mL, partner 0.2 µg/mL | 0.567
S. pneumoniae D39V [2], first compound 0.125 µg/mL, partner 0.21 µg/mL | 0.712
S. pneumoniae D39V [2], first compound 0.125 µg/mL, partner 0.4 µg/mL | 0.298
S. pneumoniae D39V [2], first compound 0.125 µg/mL, partner 0.42 µg/mL | 0.536
S. pneumoniae D39V [2], first compound 0.125 µg/mL, partner 0.8 µg/mL | 0.146
S. pneumoniae D39V [2], first compound 0.25 µg/mL, partner 0.105 µg/mL | 0.776
S. pneumoniae D39V [2], first compound 0.25 µg/mL, partner 0.21 µg/mL | 0.7
S. pneumoniae D39V [2], first compound 0.25 µg/mL, partner 0.42 µg/mL | 0.551
S. pneumoniae D39V [2], first compound 0.5 µg/mL, partner 0.105 µg/mL | 0.61
S. pneumoniae D39V [2], first compound 0.5 µg/mL, partner 0.2 µg/mL | 0.443
S. pneumoniae D39V [2], first compound 0.5 µg/mL, partner 0.21 µg/mL | 0.569
S. pneumoniae D39V [2], first compound 0.5 µg/mL, partner 0.4 µg/mL | 0.252
S. pneumoniae D39V [2], first compound 0.5 µg/mL, partner 0.42 µg/mL | 0.414
S. pneumoniae D39V [2], first compound 0.5 µg/mL, partner 0.8 µg/mL | 0.119

Details | Bliss interaction score
B. subtilis 168 [3] | 0.247
S. aureus DSM 20231 | 0.0785
S. aureus Newman | 0.081
S. pneumoniae D39V [4] | 0.0563

Reference: the supplement of paper PMC10627819
